Experimental data as given in Sander's compilation of Henry's law constants.

Experiments:
[1] = Henry solubility constant Hcp at 296 K (mol/(m3 Pa))
[2] = Henry solubility constant Hcp at 310 K (mol/(m3 Pa))
[3] = Henry solubility constant Hcp at 293 K (mol/(m3 Pa))
[4] = Henry solubility constant Hcp at 298.15 K (mol/(m3 Pa))
[5] = Henry solubility constant Hcp at 295 K (mol/(m3 Pa))
[6] = Henry solubility constant Hcp at 303 K (mol/(m3 Pa))
[7] = reference: McIntosh and Heffron (2000)
[8] = reference: Yurteri et al. (1987)
[9] = reference: Bissonette et al. (1990)
[10] = reference: Robbins et al. (1993)
[11] = reference: Turner et al. (1996)
[12] = reference: de Wolf and Lieder (1998)
[13] = reference: Warner et al. (1980)
[14] = reference: Meynier et al. (2003)
[15] = reference: Cooling et al. (1992)
[16] = reference: Hartkopf and Karger (1973)
[17] = reference: Khalfaoui and Newsham (1994b)
[18] = reference: Ramachandran et al. (1996)
[19] = reference: Chiang et al. (1998)
[20] = reference: Pearson and McConnell (1975)
[21] = reference: Gossett et al. (1985)
[22] = reference: Lincoff and Gossett (1984)
[23] = reference: Richon et al. (1985)
[24] = reference: Kieckbusch and King (1979b)
[25] = reference: Fendinger et al. (1989)

## Cc1ccccc1C [1,2-dimethylbenzene]
[1]; reference: Anderson (1992)
  Henry solubility constant Hcp at 296 K: 0.0017
[2]; [7]
  Henry solubility constant Hcp at 310 K: 0.00096
[3]; [8]
  Henry solubility constant Hcp at 293 K: 0.0023
[4]; [9]
  Henry solubility constant Hcp: 0.0021
[4]; reference: Li et al. (2008)
  Henry solubility constant Hcp: 0.0023
[4]; [10]
  Henry solubility constant Hcp: 0.002
[4]; reference: Sieg et al. (2009)
  Henry solubility constant Hcp: 0.002
[4]; [11]
  Henry solubility constant Hcp: 0.0014
[4]; reference: Wasik and Tsang (1970)
  Henry solubility constant Hcp: 0.0029

## Clc1cccc(Cl)c1 [1,3-dichlorobenzene]
[5]; [12]
  Henry solubility constant Hcp at 295 K: 0.0037
[4]; reference: Li et al. (2008)
  Henry solubility constant Hcp: 0.0029
[4]; [13]
  Henry solubility constant Hcp: 0.0038

## C=CC(C)(C)O [2-methyl-3-buten-2-ol]
[6]; reference: Iraci et al. (1999)
  Henry solubility constant Hcp at 303 K: 0.64

## CC(=O)OCCC(C)C [3-methylbutyl ethanoate]
[6]; [14]
  Henry solubility constant Hcp at 303 K: 0.088
[4]; reference: Ammari and Schroen (2019)
  Henry solubility constant Hcp: 0.022

## CCC(=O)CC [3-pentanone]
[6]; reference: Saylor et al. (1938)
  Henry solubility constant Hcp at 303 K: 9.7e-05
[4]; reference: Hovorka et al. (2019)
  Henry solubility constant Hcp: 0.11
[4]; reference: Ji and Evans (2007)
  Henry solubility constant Hcp: 0.16

## CCC/C=C/C=O [(E)-2-hexenal]
[6]; [14]
  Henry solubility constant Hcp at 303 K: 0.9
[4]; reference: Buttery et al. (1971)
  Henry solubility constant Hcp: 0.2

## Brc1ccccc1 [bromobenzene]
[5]; [12]
  Henry solubility constant Hcp at 295 K: 0.005
[4]; reference: Lau et al. (2010)
  Henry solubility constant Hcp: 0.0039

## Clc1ccccc1 [chlorobenzene]
[5]; [12]
  Henry solubility constant Hcp at 295 K: 0.0034
[3]; [8]
  Henry solubility constant Hcp at 293 K: 0.0031
[4]; [9]
  Henry solubility constant Hcp: 0.0024
[4]; [15]
  Henry solubility constant Hcp: 0.003
[4]; reference: Ervin et al. (1980)
  Henry solubility constant Hcp: 0.0029
[4]; reference: Ettre et al. (1993)
  Henry solubility constant Hcp: 0.0031
[4]; [16]
  Henry solubility constant Hcp: 0.0028
[4]; [17]
  Henry solubility constant Hcp: 0.003
[4]; reference: Lau et al. (2010)
  Henry solubility constant Hcp: 0.0017
[4]; reference: Lei et al. (2004)
  Henry solubility constant Hcp: 0.0015
[4]; reference: Li et al. (2008)
  Henry solubility constant Hcp: 0.0024
[4]; reference: Mackay et al. (1979)
  Henry solubility constant Hcp: 0.0026
[4]; reference: Park et al. (1997)
  Henry solubility constant Hcp: 0.0019
[4]; [18]
  Henry solubility constant Hcp: 0.0029
[4]; [13]
  Henry solubility constant Hcp: 0.0025

## [CH3][Hg][Cl] [chloromethylmercury]
[5]; reference: Talmi and Mesmer (1975)
  Henry solubility constant Hcp at 295 K: 15
[4]; reference: Iverfeldt and Lindqvist (1982)
  Henry solubility constant Hcp: 22

## CCCCC(CC)COC(=O)CCCCC(=O)OCC(CC)CCCC (stereo not given) [di-(2-ethylhexyl)-adipate]
[5]; reference: Felder et al. (1986)
  Henry solubility constant Hcp at 295 K: 23

## ClCCl [dichloromethane]
[1]; reference: David et al. (2000)
  Henry solubility constant Hcp at 296 K: 0.0039
[2]; [7]
  Henry solubility constant Hcp at 310 K: 0.0034
[3]; [19]
  Henry solubility constant Hcp at 293 K: 0.0034
[3]; [20]
  Henry solubility constant Hcp at 293 K: 0.0033
[3]; reference: Yu (1992)
  Henry solubility constant Hcp at 293 K: 0.0044
[3]; [8]
  Henry solubility constant Hcp at 293 K: 0.0052
[4]; reference: Chen et al. (2012)
  Henry solubility constant Hcp: 0.0035
[4]; reference: Gossett (1987)
  Henry solubility constant Hcp: 0.0046
[4]; [21]
  Henry solubility constant Hcp: 0.0038
[4]; [16]
  Henry solubility constant Hcp: 0.0042
[4]; [22]
  Henry solubility constant Hcp: 0.0034
[4]; reference: Lutsyk et al. (2005)
  Henry solubility constant Hcp: 0.0043
[4]; reference: Park et al. (1997)
  Henry solubility constant Hcp: 0.0043
[4]; [13]
  Henry solubility constant Hcp: 0.0031

## [N-]=[N+]=O [dinitrogen monoxide]
[1]; reference: Nunn (1958)
  Henry solubility constant Hcp at 296 K: 0.00022
[2]; reference: Bachofen and Farhi (1971)
  Henry solubility constant Hcp at 310 K: 0.00019
[2]; reference: Sy and Hasbrouck (1964)
  Henry solubility constant Hcp at 310 K: 0.00014
[4]; reference: Carius (1855)
  Henry solubility constant Hcp: 0.00025
[4]; reference: Gabel and Schultz (1973)
  Henry solubility constant Hcp: 0.00025
[4]; reference: Geffcken (1904)
  Henry solubility constant Hcp: 0.00024
[4]; reference: Joosten and Danckwerts (1972)
  Henry solubility constant Hcp: 0.00024
[4]; reference: Kunerth (1922)
  Henry solubility constant Hcp: 0.00024
[4]; reference: Orcutt and Seevers (1937a)
  Henry solubility constant Hcp: 0.00024
[4]; reference: Roth (1897)
  Henry solubility constant Hcp: 0.00023
[4]; reference: Saidman et al. (1966)
  Henry solubility constant Hcp: 0.00024
[4]; reference: Siebeck (1909)
  Henry solubility constant Hcp: 0.00024
[4]; reference: Weiss and Price (1980)
  Henry solubility constant Hcp: 0.00024

## CCOC=O [ethyl methanoate]
[6]; [23]
  Henry solubility constant Hcp at 303 K: 0.023
[4]; [16]
  Henry solubility constant Hcp: 0.0019
[4]; reference: Kutsuna et al. (2005)
  Henry solubility constant Hcp: 0.034
[4]; reference: Wittig et al. (2001)
  Henry solubility constant Hcp: 0.04

## CCCCC(=O)OCC [ethyl pentanoate]
[6]; [14]
  Henry solubility constant Hcp at 303 K: 0.14

## [HH] [hydrogen]
[2]; reference: Longo et al. (1970)
  Henry solubility constant Hcp at 310 K: 7.2e-06
[2]; reference: Power and Stegall (1970)
  Henry solubility constant Hcp at 310 K: 7.2e-06
[6]; reference: Ruetschi and Amlie (1966)
  Henry solubility constant Hcp at 303 K: 7.5e-06
[4]; reference: Bohr and Bock (1891)
  Henry solubility constant Hcp: 7.5e-06
[4]; reference: Braun (1900)
  Henry solubility constant Hcp: 7.7e-06
[4]; reference: Bunsen (1855a)
  Henry solubility constant Hcp: 8.5e-06
[4]; reference: Crozier and Yamamoto (1974)
  Henry solubility constant Hcp: 7.7e-06
[4]; reference: Geffcken (1904)
  Henry solubility constant Hcp: 7.8e-06
[4]; reference: Gordon et al. (1977)
  Henry solubility constant Hcp: 7.7e-06
[4]; reference: Morrison and Billett (1952)
  Henry solubility constant Hcp: 7.8e-06
[4]; reference: Schmidt (1979)
  Henry solubility constant Hcp: 7.8e-06
[4]; reference: Timofejew (1890)
  Henry solubility constant Hcp: 7.8e-06
[4]; reference: Winkler (1891a)
  Henry solubility constant Hcp: 7.7e-06

## CC[N+](=O)[O-] [nitroethane]
[6]; reference: Friant and Suffet (1979)
  Henry solubility constant Hcp at 303 K: 0.14
[4]; reference: Beneš and Dohnal (1999)
  Henry solubility constant Hcp: 0.22

## CCCCCOC(C)=O [pentyl ethanoate]
[6]; [14]
  Henry solubility constant Hcp at 303 K: 0.13
[4]; [24]
  Henry solubility constant Hcp: 0.028

## CCCOC(C)=O [propyl ethanoate]
[6]; [23]
  Henry solubility constant Hcp at 303 K: 0.031
[4]; reference: Fenclová et al. (2014)
  Henry solubility constant Hcp: 0.045
[4]; [24]
  Henry solubility constant Hcp: 0.045

## ClC=C(Cl)Cl [trichloroethene]
[1]; reference: David et al. (2000)
  Henry solubility constant Hcp at 296 K: 0.001
[3]; [19]
  Henry solubility constant Hcp at 293 K: 0.0011
[3]; [20]
  Henry solubility constant Hcp at 293 K: 0.0011
[3]; [8]
  Henry solubility constant Hcp at 293 K: 0.00094
[4]; reference: Bierwagen and Keller (2001)
  Henry solubility constant Hcp: 0.0012
[4]; [9]
  Henry solubility constant Hcp: 0.001
[4]; reference: Chen et al. (2012)
  Henry solubility constant Hcp: 0.001
[4]; [15]
  Henry solubility constant Hcp: 0.00097
[4]; reference: Ervin et al. (1980)
  Henry solubility constant Hcp: 0.00074
[4]; reference: Garbarini and Lion (1985)
  Henry solubility constant Hcp: 0.001
[4]; reference: Gossett (1987)
  Henry solubility constant Hcp: 0.001
[4]; [21]
  Henry solubility constant Hcp: 0.0011
[4]; reference: Görgényi et al. (2002)
  Henry solubility constant Hcp: 0.00095
[4]; reference: Heron et al. (1998)
  Henry solubility constant Hcp: 0.00093
[4]; [17]
  Henry solubility constant Hcp: 0.00095
[4]; reference: Knauss et al. (2000)
  Henry solubility constant Hcp: 0.0011
[4]; [22]
  Henry solubility constant Hcp: 0.00097
[4]; reference: Munz and Roberts (1987)
  Henry solubility constant Hcp: 0.00096
[4]; reference: Nielsen et al. (1994)
  Henry solubility constant Hcp: 0.0013
[4]; reference: Park et al. (1997)
  Henry solubility constant Hcp: 0.00088
[4]; reference: Peng and Wan (1997)
  Henry solubility constant Hcp: 0.0011
[4]; reference: Peng and Wan (1998)
  Henry solubility constant Hcp: 0.0014
[4]; [18]
  Henry solubility constant Hcp: 0.00083
[4]; [10]
  Henry solubility constant Hcp: 0.00094
[4]; reference: Schoene and Steinhanses (1985)
  Henry solubility constant Hcp: 0.0009
[4]; reference: Shimotori and Arnold (2003)
  Henry solubility constant Hcp: 0.001
[4]; reference: Tancrède and Yanagisawa (1990)
  Henry solubility constant Hcp: 0.0013
[4]; [11]
  Henry solubility constant Hcp: 0.00085
[4]; reference: Vane and Giroux (2000)
  Henry solubility constant Hcp: 0.0011
[4]; [13]
  Henry solubility constant Hcp: 0.00084

## CCCN(CCC)c1c([N+](=O)[O-])cc(C(F)(F)F)cc1[N+](=O)[O-] [trifluralin]
[1]; [25]
  Henry solubility constant Hcp at 296 K: 0.19
[3]; reference: Rice et al. (1997b)
  Henry solubility constant Hcp at 293 K: 0.095
[4]; [25]
  Henry solubility constant Hcp: 0.17
